BindingDB's records for doi:10.1016/j.bmcl.2009.06.075 (Pfizer, 2009)

Assay: Antagonist activity at human P2Y12 receptor assessed as inhibition of ADP-induced platelet-rich plasma aggregation by turbidimetric method

Compound | IC50 [µM]
CCOC(=O)N1CCN(C(=O)[C@H](CCC(=O)O)NC(=O)c2cc(N(CC)CC)cc(-c3ccccc3)n2)CC1 [(S)-4-(4-(diethylamino)-6-phenylpicolinamido)-5-(4-(ethoxycarbonyl)piperazin-1-yl)-5-oxopentanoic acid] | > 100
CCCCCCOC(=O)N1CCN(C(=O)[C@H](CCC(=O)O)NC(=O)c2cc(N(C)CCS(C)(=O)=O)cc(-c3ccccc3)n2)CC1 [(S)-4-(4-(methyl(2-(methylsulfonyl)ethyl)amino)-6-phenylpicolinamido)-5-oxo-5-(4-(hexyloxycarbonyl)piperazin-1-yl)pentanoic acid] | 17.7
CCCCCOC(=O)N1CCN(C(=O)[C@H](CCC(=O)O)NC(=O)c2cc(N(C)CCS(C)(=O)=O)cc(-c3ccccc3)n2)CC1 [(S)-4-(4-(methyl(2-(methylsulfonyl)ethyl)amino)-6-phenylpicolinamido)-5-oxo-5-(4-(pentyloxycarbonyl)piperazin-1-yl)pentanoic acid] | 4.1
O=C(O)CC[C@H](NC(=O)c1cc(N2CCC(O)CC2)cc(-c2ccccc2)n1)C(=O)N1CCN(C(=O)OCCC2CCCC2)CC1 [(S)-5-(4-((2-cyclopentylethoxy)carbonyl)piperazin-1-yl)-4-(4-(4-hydroxypiperidin-1-yl)-6-phenylpicolinamido)-5-oxopentanoic acid] | 57.8
CN(CCS(C)(=O)=O)c1cc(C(=O)N[C@@H](CCC(=O)O)C(=O)N2CCN(C(=O)OCCC3CCCC3)CC2)nc(-c2ccccc2)c1 [(S)-5-(4-((2-cyclopentylethoxy)carbonyl)piperazin-1-yl)-4-(4-(methyl(2-(methylsulfonyl)ethyl)amino)-6-phenylpicolinamido)-5-oxopentanoic acid] | 17.5
C=CCOC(=O)N1CCN(C(=O)[C@H](CCC(=O)O)NC(=O)c2cc(OCCO)cc(-c3ccccc3)n2)CC1 [(S)-5-(4-(allyloxycarbonyl)piperazin-1-yl)-4-(4-(2-hydroxyethoxy)-6-phenylpicolinamido)-5-oxopentanoic acid] | 11.1
C=CCOC(=O)N1CCN(C(=O)[C@H](CCC(=O)O)NC(=O)c2cc(OCCOC)cc(-c3ccccc3)n2)CC1 [(S)-5-(4-(allyloxycarbonyl)piperazin-1-yl)-4-(4-(2-methoxyethoxy)-6-phenylpicolinamido)-5-oxopentanoic acid] | 13.3
C=CCOC(=O)N1CCN(C(=O)[C@H](CCC(=O)O)NC(=O)c2cc(OCCCC)cc(-c3ccccc3)n2)CC1 [(S)-5-(4-(allyloxycarbonyl)piperazin-1-yl)-4-(4-butoxy-6-phenylpicolinamido)-5-oxopentanoic acid] | 61.7
C=CCOC(=O)N1CCN(C(=O)[C@H](CCC(=O)O)NC(=O)c2cc(OC3CCNCC3)cc(-c3ccccc3)n2)CC1 [(S)-5-(4-(allyloxycarbonyl)piperazin-1-yl)-5-oxo-4-(6-phenyl-4-(piperidin-4-yloxy)picolinamido)pentanoic acid] | 9.4
CCCCOC(=O)N1CCN(C(=O)[C@H](CCC(=O)O)NC(=O)c2cc(OCCO)cc(-c3ccccc3)n2)CC1 [(S)-5-(4-(butoxycarbonyl)piperazin-1-yl)-4-(4-(2-hydroxyethoxy)-6-phenylpicolinamido)-5-oxopentanoic acid] | 7.8
CCCCOC(=O)N1CCN(C(=O)[C@H](CCC(=O)O)NC(=O)c2cc(OC3CCNCC3)cc(-c3ccccc3)n2)CC1 [(S)-5-(4-(butoxycarbonyl)piperazin-1-yl)-5-oxo-4-(6-phenyl-4-(piperidin-4-yloxy)picolinamido)pentanoic acid] | 1.1
CCCCOC(=O)N1CCN(C(=O)[C@H](CCC(=O)O)NC(=O)c2cccc(-c3ccccc3)n2)CC1 [(S)-5-(4-(butoxycarbonyl)piperazin-1-yl)-5-oxo-4-(6-phenylpicolinamido)pentanoic acid] | 28
CCOC(=O)N1CCN(C(=O)[C@H](CCC(=O)O)NC(=O)c2cc(NCCO)cc(-c3ccccc3)n2)CC1 [(S)-5-(4-(ethoxycarbonyl)piperazin-1-yl)-4-(4-(2-hydroxyethylamino)-6-phenylpicolinamido)-5-oxopentanoic acid] | 8.1
CCOC(=O)N1CCN(C(=O)[C@H](CCC(=O)O)NC(=O)c2cc(OCCOC)cc(-c3ccccc3)n2)CC1 [(S)-5-(4-(ethoxycarbonyl)piperazin-1-yl)-4-(4-(2-methoxyethoxy)-6-phenylpicolinamido)-5-oxopentanoic acid] | 5.8
CCOC(=O)N1CCN(C(=O)[C@H](CCC(=O)O)NC(=O)c2cc(NCCOC)cc(-c3ccccc3)n2)CC1 [(S)-5-(4-(ethoxycarbonyl)piperazin-1-yl)-4-(4-(2-methoxyethylamino)-6-phenylpicolinamido)-5-oxopentanoic acid] | 14
CCOC(=O)N1CCN(C(=O)[C@H](CCC(=O)O)NC(=O)c2cc(N(C)CCS(C)(=O)=O)cc(-c3ccccc3)n2)CC1 [(S)-5-(4-(ethoxycarbonyl)piperazin-1-yl)-4-(4-(methyl(2-(methylsulfonyl)ethyl)amino)-6-phenylpicolinamido)-5-oxopentanoic acid] | 7.6
CCOC(=O)N1CCN(C(=O)[C@H](CCC(=O)O)NC(=O)c2cc(OC)cc(-c3ccccc3)n2)CC1 [(S)-5-(4-(ethoxycarbonyl)piperazin-1-yl)-4-(4-methoxy-6-phenylpicolinamido)-5-oxopentanoic acid] | 39
CCOC(=O)N1CCN(C(=O)[C@H](CCC(=O)O)NC(=O)c2cc(OCC3CCNCC3)cc(-c3ccccc3)n2)CC1 [(S)-5-(4-(ethoxycarbonyl)piperazin-1-yl)-5-oxo-4-(6-phenyl-4-(piperidin-4-ylmethoxy)picolinamido)pentanoic acid] | 4
CCOC(=O)N1CCN(C(=O)[C@H](CCC(=O)O)NC(=O)c2cc(NCC3CCNCC3)cc(-c3ccccc3)n2)CC1 [(S)-5-(4-(ethoxycarbonyl)piperazin-1-yl)-5-oxo-4-(6-phenyl-4-(piperidin-4-ylmethylamino)picolinamido)pentanoic acid] | 8.5
CCOC(=O)N1CCN(C(=O)[C@H](CCC(=O)O)NC(=O)c2cc(OC3CCNCC3)cc(-c3ccccc3)n2)CC1 [(S)-5-(4-(ethoxycarbonyl)piperazin-1-yl)-5-oxo-4-(6-phenyl-4-(piperidin-4-yloxy)picolinamido)pentanoic acid] | 1.9
CCCNc1cc(C(=O)N[C@@H](CCC(=O)O)C(=O)N2CCN(C(=O)OCC)CC2)nc(-c2ccccc2)c1 [(S)-5-(4-(ethoxycarbonyl)piperazin-1-yl)-5-oxo-4-(6-phenyl-4-(propylamino)picolinamido)pentanoic acid] | 28
CCOC(=O)N1CCN(C(=O)[C@H](CCC(=O)O)NC(=O)c2cc(NC3CCOCC3)cc(-c3ccccc3)n2)CC1 [(S)-5-(4-(ethoxycarbonyl)piperazin-1-yl)-5-oxo-4-(6-phenyl-4-(tetrahydro-2H-pyran-4-ylamino)picolinamido)pentanoic acid] | 21
CCCCCCCOC(=O)N1CCN(C(=O)[C@H](CCC(=O)O)NC(=O)c2cccc(-c3ccccc3)n2)CC1 [(S)-5-(4-(heptyloxycarbonyl)piperazin-1-yl)-5-oxo-4-(6-phenylpicolinamido)pentanoic acid] | 56
CCCCCCOC(=O)N1CCN(C(=O)[C@H](CCC(=O)O)NC(=O)c2cc(N3CCC(COC)CC3)cc(-c3ccccc3)n2)CC1 [(S)-5-(4-(hexyloxycarbonyl)piperazin-1-yl)-4-(4-(4-(methoxymethyl)piperidin-1-yl)-6-phenylpicolinamido)-5-oxopentanoic acid] | 7.6
CCCCCCOC(=O)N1CCN(C(=O)[C@H](CCC(=O)O)NC(=O)c2cc(N3CCC(O)CC3)cc(-c3ccccc3)n2)CC1 [(S)-5-(4-(hexyloxycarbonyl)piperazin-1-yl)-4-(4-(4-hydroxypiperidin-1-yl)-6-phenylpicolinamido)-5-oxopentanoic acid] | 6.4
CCCCCCOC(=O)N1CCN(C(=O)[C@H](CCC(=O)O)NC(=O)c2cccc(-c3ccccc3)n2)CC1 [(S)-5-(4-(hexyloxycarbonyl)piperazin-1-yl)-5-oxo-4-(6-phenylpicolinamido)pentanoic acid] | 19
COCCOc1cc(C(=O)N[C@@H](CCC(=O)O)C(=O)N2CCN(C(=O)OC(C)C)CC2)nc(-c2ccccc2)c1 [(S)-5-(4-(isopropoxycarbonyl)piperazin-1-yl)-4-(4-(2-methoxyethoxy)-6-phenylpicolinamido)-5-oxopentanoic acid] | 20.1
COC(=O)N1CCN(C(=O)[C@H](CCC(=O)O)NC(=O)c2cccc(-c3ccccc3)n2)CC1 [(S)-5-(4-(methoxycarbonyl)piperazin-1-yl)-5-oxo-4-(6-phenylpicolinamido)pentanoic acid] | > 100
CCCCCOC(=O)N1CCN(C(=O)[C@H](CCC(=O)O)NC(=O)c2cccc(-c3ccccc3)n2)CC1 [(S)-5-oxo-5-(4-(pentyloxycarbonyl)piperazin-1-yl)-4-(6-phenylpicolinamido)pentanoic acid] | 15
